± gives the standard deviation of the averaged measurements.
Columns and labels:
SOTRASTAURIN/AEB071 = compound: CN1CCN(c2nc(C3=C(c4c[nH]c5ccccc45)C(=O)NC3=O)c3ccccc3n2)CC1 [SOTRASTAURIN/AEB071]; test: surviving fraction relative to DMSO-only wells; higher = less growth inhibition; conditions: exposure time: 5 days
Procedure, shortened: (§1)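 Surviving fraction was calculated by normalising CellTiter-Glo luminescence to the median of DMSO-only wells. Tumour cell lines in log phase were seeded in 384-well plates at 250–500 cells per well, and 24 hours later were exposed continuously for five days to inhibitors at 0.5, 1, 5, 10, 50, 100, 500 and 1000 nM.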

[1] = compound: CNCc1ccc(-c2[nH]c3cc(F)cc4c3c2CCNC4=O)cc1; test: as above; conditions: exposure time: 5 days
Procedure, shortened: as §1

Test System | surviving fraction (SOTRASTAURIN/AEB071; 0.5 nM) | surviving fraction (SOTRASTAURIN/AEB071; 1 nM) | surviving fraction (SOTRASTAURIN/AEB071; 5 nM) | surviving fraction (SOTRASTAURIN/AEB071; 10 nM) | surviving fraction (SOTRASTAURIN/AEB071; 50 nM) | surviving fraction (SOTRASTAURIN/AEB071; 100 nM) | surviving fraction (SOTRASTAURIN/AEB071; 500 nM) | surviving fraction (SOTRASTAURIN/AEB071; 1000 nM) | surviving fraction ([1]; 0.5 nM) | surviving fraction ([1]; 1 nM) | surviving fraction ([1]; 5 nM) | surviving fraction ([1]; 10 nM) | surviving fraction ([1]; 50 nM) | surviving fraction ([1]; 100 nM) | surviving fraction ([1]; 500 nM) | surviving fraction ([1]; 1000 nM)
22RV1 PROSTATE | 1.08 ± 0.014 | 1.11 ± 0.026 | 0.985 ± 0.013 | 1.05 ± 0.054 | 1.24 ± 0.26 | 1.2 ± 0.17 | 1.06 ± 0.099 | 1.03 ± 0.051 | 1.09 ± 0.051 | 1.13 ± 0.09 | 1.02 ± 0.075 | 0.968 ± 0.12 | 1.28 ± 0.32 | 1.04 ± 0.061 | 1.014 ± 0.0031 | 1.11 ± 0.24
93VU HEADNECK | 1.03 ± 0.011 | 1.01 ± 0.036 | 1.07 ± 0.1 | 0.9817 ± 0.005 | 0.919 ± 0.067 | 0.887 ± 0.039 | 0.757 ± 0.055 | 0.789 ± 0.048 | 0.958 ± 0.074 | 0.994 ± 0.09 | 1.08 ± 0.081 | 1.01 ± 0.028 | 0.892 ± 0.07 | 0.859 ± 0.063 | 0.927 ± 0.04 | 0.894 ± 0.036
143B BONE | 1.067 ± 0.0071 | 1.08 ± 0.037 | 1.14 ± 0.14 | 1.04 ± 0.014 | 1.09 ± 0.037 | 1.14 ± 0.11 | 1.12 ± 0.096 | 1.09 ± 0.063 | 1.02 ± 0.037 | 1.04 ± 0.011 | 1.07 ± 0.037 | 1.1 ± 0.073 | 1.11 ± 0.14 | 1.04 ± 0.046 | 1.07 ± 0.15 | 1.04 ± 0.067
A549 LUNG | 1.059 ± 0.0099 | 1.11 ± 0.015 | 1.076 ± 0.0085 | 1.06 ± 0.017 | 1.07 ± 0.021 | 1.102 ± 0.0085 | 1.07 ± 0.03 | 1.06 ± 0.048 | 1.1 ± 0.039 | 1.07 ± 0.03 | 1.057 ± 0.0071 | 1.06 ± 0.029 | 1.14 ± 0.066 | 1.05 ± 0.06 | 1.08 ± 0.027 | 1.08 ± 0.034
ASKA SYNOVIAL | 1.14 ± 0.086 | 1.1 ± 0.074 | 1.18 ± 0.057 | 1.2 ± 0.097 | 1.03 ± 0.073 | 1.02 ± 0.028 | 0.998 ± 0.068 | 0.995 ± 0.077 | 1.1 ± 0.024 | 1.04 ± 0.072 | 1.04 ± 0.07 | 0.987 ± 0.017 | 0.887 ± 0.053 | 0.72 ± 0.019 | 0.653 ± 0.1 | 0.585 ± 0.057
BT20 BREAST | 1.12 ± 0.043 | 1.14 ± 0.11 | 1.19 ± 0.052 | 1.15 ± 0.024 | 0.836 ± 0.013 | 0.893 ± 0.15 | 0.912 ± 0.029 | 0.972 ± 0.055 | 1.09 ± 0.095 | 1.05 ± 0.055 | 1.03 ± 0.081 | 1.04 ± 0.059 | 0.792 ± 0.14 | 0.814 ± 0.046 | 0.815 ± 0.11 | 0.872 ± 0.014
BT549 BREAST | 0.889 ± 0.093 | 1.06 ± 0.068 | 1.01 ± 0.19 | 1.16 ± 0.2 | 0.904 ± 0.095 | 0.897 ± 0.035 | 0.919 ± 0.12 | 1.07 ± 0.16 | 0.958 ± 0.011 | 1.01 ± 0.16 | 0.972 ± 0.078 | 1.04 ± 0.081 | 0.753 ± 0.13 | 0.818 ± 0.073 | 0.828 ± 0.069 | 0.881 ± 0.056
C33A CERVIX | 0.938 ± 0.17 | 1.05 ± 0.059 | 1.14 ± 0.045 | 1.05 ± 0.12 | 1.19 ± 0.071 | 1.16 ± 0.13 | 1.14 ± 0.077 | 1.2 ± 0.086 | 0.991 ± 0.071 | 0.993 ± 0.078 | 1.02 ± 0.085 | 0.937 ± 0.095 | 1.09 ± 0.13 | 0.963 ± 0.041 | 1.25 ± 0.024 | 0.707 ± 0.0089
CADOES1 SOFT TISSUE | 1.04 ± 0.11 | 0.908 ± 0.11 | 1 ± 0.18 | 0.926 ± 0.1 | 0.923 ± 0.019 | 0.973 ± 0.14 | 1.04 ± 0.055 | 0.962 ± 0.18 | 1 ± 0.21 | 0.975 ± 0.19 | 0.903 ± 0.081 | 0.838 ± 0.045 | 1.02 ± 0.068 | 0.856 ± 0.12 | 0.799 ± 0.14 | 0.715 ± 0.22
CAL51 BREAST | 0.993 ± 0.025 | 0.969 ± 0.071 | 0.933 ± 0.031 | 0.962 ± 0.05 | 0.968 ± 0.077 | 1.04 ± 0.04 | 0.938 ± 0.077 | 0.824 ± 0.05 | 0.935 ± 0.033 | 0.96 ± 0.04 | 0.927 ± 0.023 | 0.848 ± 0.052 | 0.954 ± 0.019 | 0.819 ± 0.021 | 0.706 ± 0.035 | 0.604 ± 0.021

Reference: the supplement of paper PMC6045584
